Measured values published in patent publication US20250295646A1, “METHODS OF USE OF T-TYPE CALCIUM CHANNEL MODULATORS” (Praxis Precision Medicines, Inc., priority 2022, published 2025).

Tested on: adult patients with essential tremor
Assay: Example 16: video-reviewed TETRAS performance subscale and upper limb score; for TETRAS Performance Subscale Total Score by Video Review, Change from Baseline, Mean (SD): test concentration or dose not given here; for TETRAS Performance Subscale Total Score by Video Review, Change from Baseline, Median: test concentration or dose not given here; for TETRAS Performance Subscale Total Score by Video Review, Mean (SD): test concentration or dose not given here; for TETRAS Performance Subscale Total Score by Video Review, Median: test concentration or dose not given here
Type: in vivo, human
From the text: Video-reviewed TETRAS Analyses Video reviewed TETRAS assessments were generally consistent with those conducted at the clinic. Video reviewed TETRAS performance subscale total scores are summarized for Part A, the open-label titration phase of Part B, and the randomized withdrawal phase of Part B in Table 42, Table 43, and Table 44.
Video reviewed upper limb score values were generally consistent with those conducted at the clinic and are summarized for Part A, the open-label titration phase of Part B, and the randomized withdrawal phase of Part B in Table 45, Table 46, and Table 47, respectively.

[1] = Day 21, Part B Open-Label Titration Phase (N = 17)
[2] = Day 21, Part B, Formula (I) arm (N = 6)
[3] = Day 42 6 hours Post - dose (Randomization Baseline), Part B, Formula (I) arm (N = 6)
[4] = Day 42, 6 hours Post - dose, Part B Open-Label Titration Phase (N = 17)
[5] = Day 42, 6 hours Post - dose, Part B, Formula (I) arm (N = 6)
[6] = Day 42, Pre - dose, Part B Open-Label Titration Phase (N = 17)
[7] = Day 42, Pre - dose, Part B, Formula (I) arm (N = 6)
[8] = Day 56, Part B, Formula (I) arm (N = 6)
[9] = Day 70, Part B, Formula (I) arm (N = 6)

CC(C)(C)NC(=O)CN1CCC(CNC(=O)c2cc(F)cc(Cl)c2)CC1 [compound of formula (I), N-((1-(2-(tert-butylamino)-2-oxoethyl)piperidin-4-yl)methyl)-3-chloro-5-fluorobenzamide]
TETRAS Upper Limb Score by Video Review, Mean (SD) [1]: 9.63 (2.478) | TETRAS Upper Limb Score by Video Review, Median [1]: 10.00 | TETRAS Upper Limb Score by Video Review, Percentage Change from Baseline in Tremor Amplitude, Mean (SD) [1]: −9.74 (24.458) % | TETRAS Upper Limb Score by Video Review, Percentage Change from Baseline in Tremor Amplitude, Median [1]: −9.15% | TETRAS Performance Subscale Total Score by Video Review, Change from Baseline, Mean (SD) [2]: 0.08 (2.396) | TETRAS Performance Subscale Total Score by Video Review, Change from Baseline, Median [2]: 0.50 | TETRAS Performance Subscale Total Score by Video Review, Mean (SD) [2]: 22.42 (3.277) | TETRAS Performance Subscale Total Score by Video Review, Median [2]: 22.00 | TETRAS Performance Subscale Total Score by Video Review, Percentage Change from Baseline in Tremor Amplitude, Mean (SD) [2]: 0.67 (15.665) % | TETRAS Performance Subscale Total Score by Video Review, Percentage Change from Baseline in Tremor Amplitude, Median [2]: 3.53% | TETRAS Upper Limb Score by Video Review, Change from Baseline, Mean (SD) [2]: 0.17 (1.211) | TETRAS Upper Limb Score by Video Review, Change from Baseline, Median [2]: 0.00 | TETRAS Upper Limb Score by Video Review, Mean (SD) [2]: 10.08 (0.861) | TETRAS Upper Limb Score by Video Review, Median [2]: 10.00 | TETRAS Upper Limb Score by Video Review, Percentage Change from Baseline in Tremor Amplitude, Mean (SD) [2]: 2.64 (20.424) % | TETRAS Upper Limb Score by Video Review, Percentage Change from Baseline in Tremor Amplitude, Median [2]: 0.00% | TETRAS Performance Subscale Total Score by Video Review, Mean (SD) [3]: 19.92 (5.229) | TETRAS Performance Subscale Total Score by Video Review, Median [3]: 20.25 | TETRAS Upper Limb Score by Video Review, Mean (SD) [3]: 8.42 (2.417) | TETRAS Upper Limb Score by Video Review, Median [3]: 9.25 | TETRAS Performance Subscale Total Score by Video Review, Change from Baseline, Mean (SD) [4]: −3.18 (3.133) | TETRAS Performance Subscale Total Score by Video Review, Change from Baseline, Median [4]: −3.50 | TETRAS Performance Subscale Total Score by Video Review, Mean (SD) [4]: 20.32 (7.564) | TETRAS Performance Subscale Total Score by Video Review, Median [4]: 20.00 | TETRAS Performance Subscale Total Score by Video Review, Percentage Change from Baseline in Tremor Amplitude, Mean (SD) [4]: −18.90 (18.026) % | TETRAS Performance Subscale Total Score by Video Review, Percentage Change from Baseline in Tremor Amplitude, Median [4]: −22.26% | TETRAS Upper Limb Score by Video Review, Change from Baseline, Mean (SD) [4]: −1.77 (1.633) | TETRAS Upper Limb Score by Video Review, Change from Baseline, Median [4]: −1.50 | TETRAS Upper Limb Score by Video Review, Mean (SD) [4]: 8.95 (2.902) | TETRAS Upper Limb Score by Video Review, Median [4]: 9.00 | TETRAS Upper Limb Score by Video Review, Percentage Change from Baseline in Tremor Amplitude, Mean (SD) [4]: −26.26 (22.691) % | TETRAS Upper Limb Score by Video Review, Percentage Change from Baseline in Tremor Amplitude, Median [4]: −25.01% | TETRAS Performance Subscale Total Score by Video Review, Change from Baseline, Mean (SD) [5]: −2.42 (3.484) | TETRAS Performance Subscale Total Score by Video Review, Change from Baseline, Median [5]: −3.00 | TETRAS Performance Subscale Total Score by Video Review, Percentage Change from Baseline in Tremor Amplitude, Mean (SD) [5]: −14.27 (20.962) % | TETRAS Performance Subscale Total Score by Video Review, Percentage Change from Baseline in Tremor Amplitude, Median [5]: −19.21% | TETRAS Upper Limb Score by Video Review, Change from Baseline, Mean (SD) [5]: −1.50 (2.025) | TETRAS Upper Limb Score by Video Review, Change from Baseline, Median [5]: −1.25 | TETRAS Upper Limb Score by Video Review, Percentage Change from Baseline in Tremor Amplitude, Mean (SD) [5]: −21.52 (28.723) % | TETRAS Upper Limb Score by Video Review, Percentage Change from Baseline in Tremor Amplitude, Median [5]: −21.24% | TETRAS Performance Subscale Total Score by Video Review, Change from Baseline, Mean (SD) [6]: −2.32 (2.272) | TETRAS Performance Subscale Total Score by Video Review, Change from Baseline, Median [6]: −2.50 | TETRAS Performance Subscale Total Score by Video Review, Mean (SD) [6]: 21.18 (7.916) | TETRAS Performance Subscale Total Score by Video Review, Median [6]: 19.50 | TETRAS Performance Subscale Total Score by Video Review, Percentage Change from Baseline in Tremor Amplitude, Mean (SD) [6]: −14.41 (13.541) % | TETRAS Performance Subscale Total Score by Video Review, Percentage Change from Baseline in Tremor Amplitude, Median [6]: −16.46% | TETRAS Upper Limb Score by Video Review, Change from Baseline, Mean (SD) [6]: −1.41 (1.429) | TETRAS Upper Limb Score by Video Review, Change from Baseline, Median [6]: −1.00 | TETRAS Upper Limb Score by Video Review, Mean (SD) [6]: 9.32 (2.943) | TETRAS Upper Limb Score by Video Review, Median [6]: 9.50 | TETRAS Upper Limb Score by Video Review, Percentage Change from Baseline in Tremor Amplitude, Mean (SD) [6]: −21.20 (19.707) % | TETRAS Upper Limb Score by Video Review, Percentage Change from Baseline in Tremor Amplitude, Median [6]: −17.46% | TETRAS Performance Subscale Total Score by Video Review, Change from Baseline, Mean (SD) [7]: −1.33 (2.338) | TETRAS Performance Subscale Total Score by Video Review, Change from Baseline, Median [7]: −1.00 | TETRAS Performance Subscale Total Score by Video Review, Mean (SD) [7]: 21.00 (5.263) | TETRAS Performance Subscale Total Score by Video Review, Median [7]: 22.25 | TETRAS Performance Subscale Total Score by Video Review, Percentage Change from Baseline in Tremor Amplitude, Mean (SD) [7]: −8.23 (14.278) % | TETRAS Performance Subscale Total Score by Video Review, Percentage Change from Baseline in Tremor Amplitude, Median [7]: −6.88% | TETRAS Upper Limb Score by Video Review, Change from Baseline, Mean (SD) [7]: −0.75 (0.935) | TETRAS Upper Limb Score by Video Review, Change from Baseline, Median [7]: −0.50 | TETRAS Upper Limb Score by Video Review, Mean (SD) [7]: 9.17 (1.862) | TETRAS Upper Limb Score by Video Review, Median [7]: 9.25 | TETRAS Upper Limb Score by Video Review, Percentage Change from Baseline in Tremor Amplitude, Mean (SD) [7]: −12.31 (14.247) % | TETRAS Upper Limb Score by Video Review, Percentage Change from Baseline in Tremor Amplitude, Median [7]: −9.15% | TETRAS Performance Subscale Total Score by Video Review, Change from Baseline, Mean (SD) [8]: −1.33 (4.771) | TETRAS Performance Subscale Total Score by Video Review, Change from Baseline, Median [8]: −0.50 | TETRAS Performance Subscale Total Score by Video Review, Change from Randomization, Mean (SD) [8]: 1.08 (2.311) | TETRAS Performance Subscale Total Score by Video Review, Change from Randomization, Median [8]: 0.75 | TETRAS Performance Subscale Total Score by Video Review, Mean (SD) [8]: 21.00 (6.542) | TETRAS Performance Subscale Total Score by Video Review, Median [8]: 21.75 | TETRAS Performance Subscale Total Score by Video Review, Percentage Change from Baseline in Tremor Amplitude, Mean (SD) [8]: −6.83 (27.753) % | TETRAS Performance Subscale Total Score by Video Review, Percentage Change from Baseline in Tremor Amplitude, Median [8]: −3.23% | TETRAS Performance Subscale Total Score by Video Review, Percentage Change from Randomization in Tremor Amplitude, Mean (SD) [8]: 6.68 (14.469) % | TETRAS Performance Subscale Total Score by Video Review, Percentage Change from Randomization in Tremor Amplitude, Median [8]: 5.12% | TETRAS Upper Limb Score by Video Review, Change from Baseline, Mean (SD) [8]: −0.75 (2.115) | TETRAS Upper Limb Score by Video Review, Change from Baseline, Median [8]: −0.25 | TETRAS Upper Limb Score by Video Review, Change from Randomization, Mean (SD) [8]: 0.75 (0.612) | TETRAS Upper Limb Score by Video Review, Change from Randomization, Median [8]: 0.50 | TETRAS Upper Limb Score by Video Review, Mean (SD) [8]: 9.17 (2.658) | TETRAS Upper Limb Score by Video Review, Median [8]: 10.00 | TETRAS Upper Limb Score by Video Review, Percentage Change from Baseline in Tremor Amplitude, Mean (SD) [8]: −10.13 (31.224) % | TETRAS Upper Limb Score by Video Review, Percentage Change from Baseline in Tremor Amplitude, Median [8]: −4.57% | TETRAS Upper Limb Score by Video Review, Percentage Change from Randomization in Tremor Amplitude, Mean (SD) [8]: 12.91 (10.020) % | TETRAS Upper Limb Score by Video Review, Percentage Change from Randomization in Tremor Amplitude, Median [8]: 9.15% | TETRAS Performance Subscale Total Score by Video Review, Change from Baseline, Mean (SD) [9]: 0.60 (2.104) | TETRAS Performance Subscale Total Score by Video Review, Change from Baseline, Median [9]: 0.50 | TETRAS Performance Subscale Total Score by Video Review, Change from Randomization, Mean (SD) [9]: 3.60 (3.343) | TETRAS Performance Subscale Total Score by Video Review, Change from Randomization, Median [9]: 4.50 | TETRAS Performance Subscale Total Score by Video Review, Mean (SD) [9]: 22.00 (4.962) | TETRAS Performance Subscale Total Score by Video Review, Median [9]: 22.50 | TETRAS Performance Subscale Total Score by Video Review, Percentage Change from Baseline in Tremor Amplitude, Mean (SD) [9]: 3.98 (13.794) % | TETRAS Performance Subscale Total Score by Video Review, Percentage Change from Baseline in Tremor Amplitude, Median [9]: 3.53% | TETRAS Performance Subscale Total Score by Video Review, Percentage Change from Randomization in Tremor Amplitude, Mean (SD) [9]: 21.30 (20.204) % | TETRAS Performance Subscale Total Score by Video Review, Percentage Change from Randomization in Tremor Amplitude, Median [9]: 27.66% | TETRAS Upper Limb Score by Video Review, Change from Baseline, Mean (SD) [9]: 0.30 (0.908) | TETRAS Upper Limb Score by Video Review, Change from Baseline, Median [9]: 0.50 | TETRAS Upper Limb Score by Video Review, Change from Randomization, Mean (SD) [9]: 1.80 (2.139) | TETRAS Upper Limb Score by Video Review, Change from Randomization, Median [9]: 2.50 | TETRAS Upper Limb Score by Video Review, Mean (SD) [9]: 9.80 (1.924) | TETRAS Upper Limb Score by Video Review, Median [9]: 9.50 | TETRAS Upper Limb Score by Video Review, Percentage Change from Baseline in Tremor Amplitude, Mean (SD) [9]: 5.17 (15.525) % | TETRAS Upper Limb Score by Video Review, Percentage Change from Baseline in Tremor Amplitude, Median [9]: 9.15% | TETRAS Upper Limb Score by Video Review, Percentage Change from Randomization in Tremor Amplitude, Mean (SD) [9]: 25.58 (31.214) % | TETRAS Upper Limb Score by Video Review, Percentage Change from Randomization in Tremor Amplitude, Median [9]: 38.10%
